This is an account of results in ChEMBL document CHEMBL5365482, “Rational Design of Sulfonyl-γ-AApeptides as Highly Potent HIV-1 Fusion Inhibitors with Broad-Spectrum Activity” (J Med Chem, 2023).

Data set [1] in a line: Apparent permeability of the compound across gastrointestinal tract in PBS buffer at pH 6.2 at 200 uM by PAMPA analysis. Format: ADME, tissue-based. In general terms: PAMPA measures passive passage across an artificial lipid membrane.
The nature of data set [2]: Apparent permeability of the compound across gastrointestinal tract in PBS buffer at pH 5 at 200 uM by PAMPA analysis. Type of data set: ADME, tissue-based.
The nature of data set [3]: Cytotoxicity against human MT2 cells assessed as inhibition of cell growth measured after 3 days by CCK8 assay. Type of data set: toxicity, cell-based. To be noted: time 3 day. (In general: Tetrazolium dyes change colour on reduction, which living cells bring about.)
In data set [4] the test system is Human immunodeficiency virus 1. Nature of the data set: Antiviral activity against HIV1 IIIB infected in human MT2 cells assessed as inhibition of viral growth incubated for 30 mins by ELISA assay. Type of data set: functional, organism-based. To be noted: Human immunodeficiency virus 1, IIIB, MT2, 0.5 h.
Data set [5] in a line: Stability of compound in ammonium bicarbonate buffer at pH 7.8 at 0.1 mg/ml incubated for 24 hrs under at 37 degreeC in presence of pronase by HPLC analysis. Type of data set: physicochemical. Conditions: pH 7.8, 24 h.
Data set [6] can be described thus: Selectivity index, ratio of CC50 for human MT2 cells to IC50 for HIV1 IIIB infected in human MT2 cells. Type of data set: toxicity, cell-based. Conditions: read-out: Ratio CC50/IC50.
A short description of another data set: in vitro. To be noted: PAMPA, pH 7.4.
Data set [7] is described as follows: Apparent permeability of the compound across gastrointestinal tract in PBS buffer at pH 5 at 50 uM by PAMPA analysis. Conditions: pampa, pH 5, 50 µM. Format: ADME, tissue-based.
Data set [8] is described as follows: Apparent permeability of the compound across gastrointestinal tract in PBS buffer at pH 7.4 at 50 uM by PAMPA analysis. Format: ADME, tissue-based.
Data set [9] in a line: Apparent permeability of the compound across gastrointestinal tract in PBS buffer at pH 6.2 at 50 uM by PAMPA analysis. Format: ADME, tissue-based. To be noted: pampa, pH 6.2, 50 µM.
The nature of data set [10]: Apparent permeability of the compound across gastrointestinal tract in PBS buffer at pH 7.4 at 200 uM by PAMPA analysis. Type of data set: ADME, tissue-based.
The subject of data set [11] is Human immunodeficiency virus 1. Briefly: Antiviral activity against HIV1 R5 […] US4/GS 007 (91US_4) clinical isolate infected in human CEMx174 5.25M7 cells assessed as inhibition of viral growth incubated for 30 mins by ELISA assay. To be noted: Human immunodeficiency virus 1, R5 […] US4/GS 007 (91US_4), CEMx174 5.25M7, 0.5 h. Format: functional, organism-based. In general terms: ELISA stands for enzyme-linked immunosorbent assay.

Data set [12] deals with Human immunodeficiency virus 1. Briefly: Antiviral activity against HIV1 Q259env.w6 clinical isolate infected in human TZM-bl cells assessed as inhibition of viral growth incubated for 48 hrs by luciferase based analysis. Conditions: Human immunodeficiency virus 1, Q259env.w6, TZM-bl. Type of data set: functional, organism-based.
The test system of data set [13] is Human immunodeficiency virus 1. Nature of the data set: Antiviral activity against HIV1 QD435.100MENV.E1 clinical isolate infected in human TZM-bl cells assessed as inhibition of viral growth incubated for 48 hrs by luciferase based analysis. Format: functional, organism-based. To be noted: Human immunodeficiency virus 1, QD435.100MENV.E1, TZM-bl.
For data set [14], the system named is Human immunodeficiency virus 1. Briefly: Antiviral activity against HIV1 QA013.701.ENV.M12 clinical isolate infected in human TZM-bl cells assessed as inhibition of viral growth incubated for 48 hrs by luciferase based analysis. To be noted: Human immunodeficiency virus 1, QA013.701.ENV.M12, TZM-bl. Format: functional, organism-based.
Data set [15] deals with Human immunodeficiency virus 1. Nature of the data set: Antiviral activity against HIV1 X4 […] MN/H9 (84US_MNp) clinical isolate infected in human MT2 cells assessed as inhibition of viral growth incubated for 30 mins by ELISA assay. Type of data set: functional, organism-based. To be noted: Human immunodeficiency virus 1, X4 […] MN/H9 (84US_MNp), MT2, 0.5 h.
Data set [16] concerns Human immunodeficiency virus 1. Briefly: Antiviral activity against HIV1 CRF02_AG Clone 33 clinical isolate infected in human TZM-bl cells assessed as inhibition of viral growth incubated for 48 hrs by luciferase based analysis. Type of data set: functional, organism-based. Conditions: Human immunodeficiency virus 1, CRF02_AG Clone 33, TZM-bl.
In data set [17] the test system is Human immunodeficiency virus 1. Briefly: Antiviral activity against HIV1 CRF02_AG Clone 278 clinical isolate infected in human TZM-bl cells assessed as inhibition of viral growth incubated for 48 hrs by luciferase based analysis. Type of data set: functional, organism-based. To be noted: Human immunodeficiency virus 1, CRF02_AG Clone 278, TZM-bl.

Bounds are passed on as bounds.

Description for in vitro: Apparent permeability of the compound across blood brain barrier in PBS buffer at pH 7.4 at 250 uM by PAMPA analysis

`Cc1cc(=O)n(-c2ccccc2)n1C` [ANTIPYRINE]: the Papp at 200 µM in data set [1] and in data set [2] was less than 1 ×10⁻⁶ cm/s throughout.
For the compound `CC[C@@H](C)[C@@H](CN(CC(=O)N[C@@H](CCC(=O)O)CN(CC(=O)N[C@@H](CC(C)C)CN(CC(N)=O)S(=O)(=O)CC(C)C)S(=O)(=O)c1ccc(C(=O)O)cc1)S(=O)(=O)CC(C)C)NC(=O)CN(C[C@H](CCCCN)NC(=O)CN(C[C@H](Cc1ccc(O)cc1)NC(=O)CN(C[C@H](CCC(=O)O)NC(=O)CN(C[C@@H](NC(=O)CN(C[C@H](CCCCN)NC(=O)CN(C[C@H](Cc1c[nH]c2ccccc12)NC(=O)CN(C[C@H](CCC(=O)O)NC(=O)CN(C[C@H](Cc1c[nH]c2ccccc12)NC(=O)CN(C[C@H](CCSC)NC(C)=O)S(=O)(=O)CC(C)C)S(=O)(=O)CC(C)C)S(=O)(=O)c1ccc(C(=O)O)cc1)S(=O)(=O)CC(C)C)S(=O)(=O)CCN)[C@H](C)CC)S(=O)(=O)CC(C)C)S(=O)(=O)c1ccc(C(=O)O)cc1)S(=O)(=O)CC(C)C)S(=O)(=O)CCN`, in [3], the CC50 at 72 h is more than 40 µM. The IC50 in [4] was determined as 30 µM. Further, in data set [5], the Stability entry is “Stable”. Besides, the selectivity ratio in [6] was more than 1.3.
With `CC[C@@H](C)[C@@H](CN(CC(=O)N[C@@H](CCC(=O)O)CN(CC(=O)N[C@@H](CC(C)C)CN(CC(N)=O)S(=O)(=O)CC(C)C)S(=O)(=O)c1ccc(C(=O)O)cc1)S(=O)(=O)CC(C)C)NC(=O)CN(C[C@H](CCCCN)NC(=O)CN(C[C@H](Cc1ccc(O)cc1)NC(=O)CN(C[C@H](CCC(=O)O)NC(=O)CN(C[C@@H](NC(=O)CN(C[C@H](CCCCN)NC(=O)CN(C[C@H](Cc1c[nH]c2ccccc12)NC(=O)CN(C[C@H](CCC(=O)O)NC(=O)CN(C[C@H](Cc1c[nH]c2ccccc12)NC(=O)CN(C[C@H](CCSC)NC(C)=O)S(=O)(=O)c1ccc(OC)cc1)S(=O)(=O)CC(C)C)S(=O)(=O)c1ccc(C(=O)O)cc1)S(=O)(=O)CC(C)C)S(=O)(=O)CCN)[C@H](C)CC)S(=O)(=O)CC(C)C)S(=O)(=O)c1ccc(C(=O)O)cc1)S(=O)(=O)CC(C)C)S(=O)(=O)CCN`, the CC50 at 72 h in data set [3] was more than 40 µM. In addition, the IC50 in data set [4] was found to be 4 µM. For the same compound, the Stability entry in data set [5] is listed as “Stable”. For the same compound, the selectivity ratio in data set [6] is more than 10.
In the data set “in vitro”, `Cn1c(=O)c2[nH]cnc2n(C)c1=O.O` [THEOPHYLLINE] yielded a Papp at 250 µM of less than 10 ×10⁻⁶ cm/s.
As for `NC(=O)N1c2ccccc2C=Cc2ccccc21` [CARBAMAZEPINE], the Papp is on record as 134.41 10^-6 cm/s in [7] and 141.28 10^-6 cm/s in [9]. Also, in data set [8], the Papp at 50 µM is 152 ×10⁻⁶ cm/s. For the same compound, in data set [10], the Papp at 200 µM was less than 1 ×10⁻⁶ cm/s.
For enfuvirtide, the IC50 in data set [11] was 0.0157 µM; in [12], 0.0508 µM; in data set [13] it was 0.072 µM; in [14], 0.0065 µM; in [15], 0.003 µM; in data set [16] it was 0.0284 µM. In addition, the IC50 in data set [17] came out at 0.0284 µM.

Usually Papp stands for a coefficient for how fast a substance crosses the barrier. In general, CC50 refers to the concentration giving 50% cytotoxicity. As a reminder, the IC50 is the concentration needed to halve the response being measured.
